# Assay results: patent publication US20160135455A1, “SAFENED HERBICIDAL COMPOSITIONS COMPRISING PYRIDINE CARBOXYLIC ACIDS” (Dow AgroSciences LLC, priority 2014, published 2016)
# Like-named read-outs stand apart in the source and are kept apart here.
# Key:
# Format in all cases: in vivo
# [1] = system: wild pansy (VIOTR, Viola tricolor); assay: Postemergence greenhouse trial, herbicidal efficacy on wild pansy; conditions: for pest or weed control at 35 g/ha: Viola tricolor, post-emergence, 528 h, read-out: Obs, % visual injury, VIOTR; for % visual injury, Obs, VIOTR: rated after 20-22 d
# Protocol: (§1) Seeds of the desired test plant species were planted in Sun Gro MetroMix® 306 planting mixture, which typically has a pH of 6.0 to 6.8 and an organic matter content of about 30 percent, in plastic pots with a surface area of 103.2 square centimeters (cm^2). When required to ensure good germination and healthy plants, a fungicide treatment and/or other chemical or physical treatment was applied. The plants were grown for 7-36 days (d) in a greenhouse with an approximate 14-hour (h) photoperiod which was maintained at about 23° C. during the day and 22° C. during the night. Nutrients and water were added on a regular basis and supplemental lighting was provided with overhead metal halide 1000-Watt lamps as necessary. The plants were employed for testing when they reached the second or third true leaf stage.
# (§2) Weighed amounts of technical material were dissolved in a volume of 97:3 volume per volume (v/v) acetone/dimethyl sulfoxide (DMSO) to stock solutions. […] The concentrated stock solutions were diluted with an aqueous mixture of 1.5% v/v of Agri-dex crop oil concentrate to provide the appropriate application rates. Compound requirements are based upon a 12 milliliter (mL) application volume at a rate of 187 liters per hectare (L/ha). Stocks solutions of the safeners were prepared following the same procedure. Spray solutions of the safeners and experimental compound mixtures were prepared by adding the stock solutions to the appropriate amount of dilution solution to form a 12 mL spray solution in two-way combinations. Formulated compounds were applied to the plant material with an overhead Mandel track sprayer equipped with 8002E nozzles calibrated to deliver 187 L/ha over an application area of 0.503 square meters (m^2) at a spray height of 18 inches (43 centimeters (cm)) above average plant canopy. Control plants were sprayed in the same manner with the solvent blank. All herbicide application (component a) rates are in g ae/ha and all safener (component b) rates are in g ai/ha.
# (§3) The treated plants and control plants were placed in a greenhouse as described above and watered by sub-irrigation to prevent wash-off of the test compounds. After 20-22 d, the condition of the test plants as compared with that of the control plants was determined visually and scored on a scale of 0 to 100 percent where 0 corresponds to no injury and 100 corresponds to complete kill. The condition of the test plants was compared with that of the control plants as determined visually and scored on a scale of 0 to 100 percent, where 0 corresponds to no injury and 100 corresponds to complete kill. Colby's equation was used to determine the herbicidal effects expected from the mixtures.
# [2] = system: pigweed (AMARE, Amaranthus retroflexus); assay: Postemergence greenhouse trial, herbicidal efficacy on pigweed; conditions: post-emergence, 528 h
# Protocol: as §1, §2, §3
# [3] = system: sorghum (SORVU, Sorghum bicolor); assay: Postemergence greenhouse trial, herbicidal efficacy on sorghum; conditions: applied alone at 35 g/ha; for % visual injury, Obs, SORVU: rated after 20-22 d
# Protocol: as §1, §2, §3
# [4] = system: velvetleaf (ABUTH, Abutilon theophrasti); assay: Postemergence greenhouse trial, herbicidal efficacy on velvetleaf; conditions: post-emergence, 528 h
# Protocol: as §1, §2, §3
# [5] = system: thistle (CIRAR, Cirsium arvense); assay: Postemergence greenhouse trial, herbicidal efficacy on thistle; conditions: post-emergence, 528 h
# Protocol: as §1, §2, §3
# [6] = system: lambsquarters (CHEAL, Chenopodium album); assay: Postemergence greenhouse trial, herbicidal efficacy on lambsquarters; conditions: post-emergence, 528 h
# Protocol: as §1, §2, §3
# [7] = system: wheat (TRZAS), Triticum aestivum (spring wheat); assay: Postemergence greenhouse trial, crop injury (phytotoxicity/safening) on wheat; conditions: applied alone at 35 g/ha, scored 20-22 d, 0 = no injury, 100 = complete kill
# Protocol: as §1, §2, §3
# (§4) The safener fenchlorazole-ethyl was combined with compound 1, compound 2, compound 3, compound 4, compound 5, and compound 6, and applied to wheat (TRZAS), and the phytotoxicity of the herbicidal compositions was measured. In addition, the efficacy of the herbicidal composition on velvetleaf (ABUTH, Abutilon theophrasti), pigweed (AMARE, Amaranthus retroflexus), winter rape (BRSNW, Brassica napus), lambsquarters (CHEAL, Chenopodium album), thistle (CIRAR, Cirsium arvense), nutsedge (CYPES, Cyperus esculentus), poinsettia (EPHHL, Euphorbia heterophylla), wild buckwheat (POLCO, Polygonum convolvulus), giant foxtail (SETFA, Setaria faberi), sorghum (SORVU, Sorghum bicolor), chickweed (STEME, Stellaria media), and wild pansy (VIOTR, Viola tricolor) was evaluated.
# The safener isoxadifen-ethyl was combined with compound 1, compound 2, compound 3, compound 4, compound 5, and compound 6, and applied to wheat (TRZAS), and the phytotoxicity of the herbicidal compositions was measured. […]
# [8] = system: giant foxtail (SETFA, Setaria faberi); assay: Postemergence greenhouse trial, herbicidal efficacy on giant foxtail; conditions: applied alone at 35 g/ha; for % visual injury, Obs, SETFA: rated after 20-22 d; for Obs, % visual injury, SETFA: scored 20-22 d
# Protocol: as §1, §2, §3
# [9] = system: chickweed (STEME, Stellaria media); assay: Postemergence greenhouse trial, herbicidal efficacy on chickweed; conditions: post-emergence, 528 h
# Protocol: as §1, §2, §3
# [10] = system: wild buckwheat (POLCO, Polygonum convolvulus); assay: Postemergence greenhouse trial, herbicidal efficacy on wild buckwheat; conditions: Fallopia convolvulus, post-emergence, 528 h
# Protocol: as §1, §2, §3
# [11] = system: corn/maize (ZEAMX), Zea mays; assay: Postemergence greenhouse trial, crop injury (phytotoxicity/safening) on corn/maize; conditions: applied alone at 35 g/ha, rated after 20-22 d
# Protocol: as §1
# as §2, with “All herbicide application (component a) rates are in g ae/ha and all safener (component b) rates are in g ai/ha.” left out
# as §3, with “Colby's equation was used to determine the herbicidal effects expected from the mixtures.” left out
# as §4, with “compound” for “compound 3, compound 4, compound”, “corn/maize (ZEAMX)” for “wheat (TRZAS),”, “bicolor), and” for “bicolor),”, “media)” for “media), and wild pansy (VIOTR, Viola tricolor)”
# The safener mefenpyr-diethyl was combined with compound 1, compound 2, and compound 5, and applied to corn/maize (ZEAMX) and the phytotoxicity of the herbicidal compositions were measured. […]
# [12] = system: winter rape (BRSNW, Brassica napus); assay: Postemergence greenhouse trial, herbicidal efficacy on winter rape; conditions: post-emergence, 528 h
# Protocol: as §1, §2, §3
# [13] = system: poinsettia (EPHHL, Euphorbia heterophylla); assay: Postemergence greenhouse trial, herbicidal efficacy on poinsettia; conditions: Euphorbia heterophylla, post-emergence, 528 h, read-out: % visual injury, Obs, EPHHL
# Protocol: as §1, §2, §3
# [14] = system: nutsedge (CYPES, Cyperus esculentus); assay: Postemergence greenhouse trial, herbicidal efficacy on nutsedge; conditions: applied alone at 35 g/ha, rated after 20-22 d
# Protocol: as §1, §2, §3
# [15] = applied alone at 35 g/ha, postemergence
# [16] = read-out: % visual injury, Obs, AMARE
# [17] = read-out: Obs, % visual injury, AMARE
# [18] = read-out: % visual injury, Obs, ABUTH
# [19] = read-out: Obs, % visual injury, ABUTH
# [20] = read-out: % visual injury, Obs, CIRAR
# [21] = read-out: Obs, % visual injury, CIRAR
# [22] = read-out: % visual injury, Obs, CHEAL
# [23] = read-out: Obs, % visual injury, CHEAL
# [24] = read-out: % visual injury, Obs, STEME
# [25] = read-out: Obs, % visual injury, STEME
# [26] = read-out: % visual injury, Obs, POLCO
# [27] = read-out: Obs, % visual injury, POLCO
# [28] = read-out: % visual injury, Obs, BRSNW
# [29] = read-out: Obs, % visual injury, BRSNW
Compound,"% visual injury, Obs, VIOTR [1, 15] [%]","% visual injury, Obs, SORVU [3] [%]","Obs, % visual injury, TRZAS [7] [%]","% visual injury, Obs, SETFA [8] [%]","Obs, % visual injury, SETFA [8] [%]","% visual injury, Obs, ZEAMX [11] [%]",pest or weed control at 35 g/ha [1] [%],"pest or weed control at 35 g/ha [2, 16] [%]","pest or weed control at 35 g/ha [2, 17] [%]","pest or weed control at 35 g/ha [4, 18] [%]","pest or weed control at 35 g/ha [4, 19] [%]","pest or weed control at 35 g/ha [5, 20] [%]","pest or weed control at 35 g/ha [5, 21] [%]","pest or weed control at 35 g/ha [6, 22] [%]","pest or weed control at 35 g/ha [6, 23] [%]","pest or weed control at 35 g/ha [9, 24] [%]","pest or weed control at 35 g/ha [9, 25] [%]","pest or weed control at 35 g/ha [10, 26] [%]","pest or weed control at 35 g/ha [10, 27] [%]","plant injury at 35 g/ha [12, 28] [%]",other results
COCC(=O)n1ccc2ccc(-c3nc(C(=O)OC)c(Cl)c(N)c3F)c(F)c21 [compound 6],30,70,35,10,10,25,–,–,–,–,–,–,–,–,–,–,–,–,–,–,"pest or weed control at 35 g/ha ([1]; applied alone at 35 g/ha, postemergence, scored 20-22 d): 30%; pest or weed control at 35 g/ha ([2]; applied alone at 35 g/ha, postemergence, rated after 20-22 d, read-out: % visual injury, Obs, AMARE): 100%; pest or weed control at 35 g/ha ([2]; applied alone at 35 g/ha, postemergence, scored 20-22 d, read-out: Obs, % visual injury, AMARE): 100%; pest or weed control at 35 g/ha ([4]; applied alone at 35 g/ha, postemergence, rated after 20-22 d, read-out: % visual injury, Obs, ABUTH): 80%; pest or weed control at 35 g/ha ([4]; applied alone at 35 g/ha, postemergence, scored 20-22 d, read-out: Obs, % visual injury, ABUTH): 80%; pest or weed control at 35 g/ha ([5]; applied alone at 35 g/ha, postemergence, rated after 20-22 d, read-out: % visual injury, Obs, CIRAR): 75%; pest or weed control at 35 g/ha ([5]; applied alone at 35 g/ha, postemergence, scored 20-22 d, read-out: Obs, % visual injury, CIRAR): 75%; pest or weed control at 35 g/ha ([6]; applied alone at 35 g/ha, postemergence, rated after 20-22 d, read-out: % visual injury, Obs, CHEAL): 100%; pest or weed control at 35 g/ha ([6]; applied alone at 35 g/ha, postemergence, scored 20-22 d, read-out: Obs, % visual injury, CHEAL): 100%; pest or weed control at 35 g/ha ([9]; applied alone at 35 g/ha, postemergence, rated after 20-22 d, read-out: % visual injury, Obs, STEME): 97%; pest or weed control at 35 g/ha ([9]; applied alone at 35 g/ha, postemergence, scored 20-22 d, read-out: Obs, % visual injury, STEME): 97%; pest or weed control at 35 g/ha ([10]; applied alone at 35 g/ha, postemergence, rated after 20-22 d, read-out: % visual injury, Obs, POLCO): 97%; pest or weed control at 35 g/ha ([10]; applied alone at 35 g/ha, postemergence, scored 20-22 d, read-out: Obs, % visual injury, POLCO): 97%; plant injury at 35 g/ha ([12]; applied alone at 35 g/ha, postemergence, rated after 20-22 d, read-out: % visual injury, Obs, BRSNW): 75%; plant injury at 35 g/ha ([12]; applied alone at 35 g/ha, postemergence, scored 20-22 d, read-out: Obs, % visual injury, BRSNW): 75%; pest or weed control at 35 g/ha ([13]; applied alone at 35 g/ha, postemergence, rated after 20-22 d): 100%"
"CCOC(=O)C1=NOC(c2ccccc2)(c2ccccc2)C1 [isoxadifen-ethyl, reference compound]",0,–,0,0,0,0,0,0,0,0,0,0,0,0,0,0,0,0,0,0,"plant injury at 35 g/ha [12, 29]: 0%; pest or weed control at 35 g/ha [13]: 0%"
"CCOC(=O)C1=NN(c2ccc(Cl)cc2Cl)C(C)(C(=O)OCC)C1 (centres unmarked) [mefenpyr-diethyl, reference compound]",0,0,0,–,–,0,0,0,0,0,0,0,0,0,0,0,0,0,0,0,"Obs, % visual injury, SORVU ([3]; scored 20-22 d): 0%; plant injury at 35 g/ha [12, 29]: 0%; pest or weed control at 35 g/ha [13]: 0%; % visual injury, Obs, CYPES [14]: 0%"
